Measurements published in patent US20260023070A1, “OPTOGENETIC ALPHA-SYNUCLEIN AGGREGATION SYSTEM-BASED COMPOUND SCREENING PLATFORM IN PD-hiPSC-mDA NEURONS” (The Johns Hopkins University, priority 2022, published 2026).

Assays:
[1] = test system: PI3K-PDK1/AKT/mTOR signaling pathway; assay: PI3K/PDK1 downstream target phosphorylation in ventral midbrain of α-syn PFF-injected mice; format: in vivo, mouse
Description: (§1) Since PI3K-PDK1/AKT/mTOR signaling pathway plays a critical role in regulation of autophagy, it was investigated the effects of BAG 956 treatments on PFF models. […] Taken together, BAG 956 may act as an autophagy-enhancing drug through inhibition of the PI3K-PDK1/AKT/mTOR signaling pathway (FIG. 18I).

opto-α-syn-MOs = assay: Autophagy in opto-α-syn-MOs kept in dark after blue light illumination; format: cell-based, human; conditions: treatment only during dark condition after blue light illumination for six days
Experimental: (§2) Because autophagy can be activated by the inhibition of PI 3-kinase (PI3K) or the PDK1 pathway, it was tested whether treatment with BAG 956 can induce the autophagic flux to decrease α-syn aggregates in opto-α-syn mDA neurons and MOs.

[2] = test system: α-syn PFF-treated opto-α-syn-mDA neurons; assay: Autophagy markers (western blot) in α-syn PFF-treated mDA neurons; format: cell-based, human; conditions: compared with control or CDC 021 treatment
Experimental: as §2

[3] = test system: mouse primary neurons treated with α-syn PFF; assay: α-syn PFF model in mouse primary neurons (TX-insoluble pathologic α-syn); format: cell-based
Experimental: (§3) To validate the effects of these two compounds on the OASIS-independent model, α-syn PFF were treated with mouse primary neurons and non-OASIS-human PD hiPSC-derived mDA neurons with CDC 021 and BAG 956.

[4] = test system: PI3K-PDK1/AKT/mTOR signaling pathway; assay: PI3K/PDK1 downstream target phosphorylation in α-syn PFF-treated PD hiPSC-derived dopaminergic neurons; format: cell-based, human
Description: as §1

α-syn PFF injected mice = assay: In vivo intrastriatal α-syn PFF mouse model, oral BAG 956 (behaviour, histology, biochemistry); conditions: short-term: two months at 2 mg/kg or one month at 10 mg/kg after intrastriatal α-syn PFF injection
[5] = test system: opto-α-syn PD hiPSC-derived mDA neurons; assay: Light-induced α-syn aggregation and neurotoxicity in opto-α-syn PD hiPSC-derived mDA neurons; format: cell-based, human; conditions: blue light 7 days; compared to DMSO control; significant at 1 and 10 nM CDC, 10 and 100 nM BAG
Experimental: Whether these potential hit compounds can inhibit α-syn aggregation and rescue aggregation-induced neuronal toxicity was tested on PD hiPSC-derived mDA neurons. The top 5 ranked small compounds in FIGURE SE were selected and these compounds to were used to treat opto-α-syn PD hiPSC-derived mDA neurons at three different concentrations (1 nM, 10 nM, 100 nM) with blue light stimulation. […] Overall, the two compounds were finally selected among the potential hit drugs from our novel opto-α-syn neuronal cell model-based primary screening (FIG. 11D), and they considerably rescued neuronal cell death from aggregation-induced TH^+ mDA neuron-selective toxicity in PD-iPSC derived neurons. To identify possible molecules involved in this compound-mediated recovery of TH^+ mDA neurons, RNA-sequencing (RNA-seq) analysis was performed with four different samples (dark condition with DMSO, blue light stimulation with DMSO, blue light stimulation with BAG treatment, and blue light stimulation with CDC treatment). To find BAG- or CDC-responsive genes, differentially expressed genes (DEGs) of DMSO-treated samples upon blue light stimulation were first extracted, and then the DEGs were filtered with criteria of which became non-DEGs in response to CDC or BAG treatment. […]
The effect of 5 selected compounds on opto-α-syn-expressing PD hiPSC-derived mDA neurons was evaluated. […]

[6] = test system: tau PFF treated mouse cortical neurons; assay: tau PFF treated mouse cortical neurons, p-Tau western blot; format: cell-based
Experimental: It was tested whether the BAG956 compound can be beneficial in other proteinopathy models. The BAG and CDC compounds were used on the tau PFF treated mouse […] neurons (FIGS. 15A-15D) and measured expression levels with three different phosphorylated-Tau (p-Tau) antibodies.

[7] = test system: blue light-illuminated opto-α-syn-mDA neurons; assay: Autophagy and aggregate clearance in blue light-illuminated opto-α-syn-mDA neurons; format: cell-based, human
Experimental: as §2

[8] = test system: human PD iPSC-derived mDA neurons treated with α-syn PFF; assay: α-syn PFF model in non-OASIS human PD hiPSC-derived mDA neurons (TX-insoluble pS129-α-syn); format: cell-based; conditions: α-syn PFF with compound for 14 days
Experimental: as §3

[9] = blue light-illuminated opto-α-syn-mDA neurons
[10] = mDA neurons exposed to blue light

Question: Which pS473-AKT ([1]; α-syn PFF injected mice, normalized to pan-AKT) does the source give for `Cc1nc2cnc3ccc(C#Cc4cccnc4)cc3c2n1-c1ccc(C(C)(C)C#N)cc1` [BAG 956] here?
Answer: reduced

Question: And the “Phosphorylation of PDK1 downstream targets PI3K, AKT, S6K, and mTOR” value ([1]; α-syn PFF-injected mice, 2 mg/kg or 10 mg/kg)?
Answer: significantly reduced

Question: What about the “LC3+ puncta and LC3+/5G4+ co-localized dots” value (opto-α-syn-MOs) of the same compound?
Answer: consistent

Question: And the “level of autophagic marker LC-311” value [2]?
Answer: up-regulated

Question: What about the “level of autophagy flux protein p62” value [2] of the same compound?
Answer: down-regulated

Question: What about the “pathologic α-syn in the Triton X-100 (TX)-insoluble fraction” value [3] of the same compound?
Answer: significantly reduced

Question: And the “Phosphorylation of PDK1 downstream targets PI3K, AKT, S6K, and mTOR” value [4]?
Answer: significantly reduced

Question: What about the “pathologic pS129-α-syn immunoreactivity in TH neurons of the ventral midbrain” value (α-syn PFF injected mice) of the same compound?
Answer: significantly reduced

Question: And the “survival rate of TH+ mDA neurons” value [5]?
Answer: significant increase

Question: What about the “all three forms of p-Tau (AT8, AT180, Tau-217)” value [6] of the same compound?
Answer: significantly downregulated

Question: What about the “LC-311 induction compared with BYL719 (alpelisib) or BAY 80-6946 (copanlisib)” value [7, 9] of the same compound?
Answer: more potent

Question: What about the “level of LC-311” value [7, 9] of the same compound?
Answer: increased

Question: And the “LC3+/5G4+ co-localized vesicles” value [7, 10]?
Answer: increased number

Question: And the “number of LC3+ puncta” value [7, 10]?
Answer: increased number

Question: What about the “TX-insoluble pS129-α-syn” value [8] of the same compound?
Answer: significant decrease
